# Where two headings read alike, the source gives them in different places.
# Experiments:
# Assay in all cases: Microdilution assay, MIC determination (CLSI M07-A9)
# Assay type in all cases: cell-based
# [1] = tested on: E. coli BW25113; conditions: Escherichia coli
# Procedure: (§1) E. coli DSM 1116; E. coli BW25113; S. typhimurium TA100; Bacillus subtilis DSM10; M. phlei DSM750 and Micrococcus luteus DSM1790
# (§2) The tests were performed using the micro dilution method.
# (§3) The determination of MIC values was performed according to the ninth edition of the Approved Standard M07-A9 (CLSI. Methods for Dilution Antimicrobial Susceptibility Tests for Bacteria That Grow Aerobically; Approved Standard-Ninth Edition. CLSI document M07-A9. Wayne, Pa.: Clinical and Laboratory Standards Institute; 2012.)
# (§4) The test was carried out for the six different bacterial strains 20 μL of cryo stock of each strain were inoculated in 20 mL of LB media (Lysogeny broth: 10 g/L peptone, 5 g/L yeast extract, 5 g/L NaCl) followed by incubation over night at 37° C., 200 rpm. The test inoculum was adjusted by the 0.5 McFarland Standard (OD625 from 0.08 to 0.1). Within 15 min of preparation, the adjusted inoculum suspension was diluted in MHBII media (BBL™ Mueller-Hinton Broth II, Becton, Dickinson and Company, New Jersey/USA) so that each well contained approximately 5×10^5 CFU/mL in a final volume of 100 μL. 95 μL of the inoculum were applied per well and 5 μL of the (diluted) antibiotic substance were added.
# (§5) Previously the dry antibiotic compounds were dissolved in DMSO (100%) with a concentration of 2560 μg/mL and the resulting stock solutions were further diluted in DMSO (100%). 5 μL of each antibiotic dilution were applied to the microdilution tray to reach final concentrations of 64 μg/mL to 0.008 μg/mL. One row of each well plate was left as a growth control without antibiotic substances and another row of the microdilution tray was used as sterility control (only MHB II-media). The antimicrobial effect of the solvent (DMSO) was tested by adding 5 μL DMSO to several wells without antibiotics.
# (§6) Purity check and cell titer control were performed according to International Standard M07-A9 on Mueller-Hinton II Agar (Mueller Hinton II Broth, 15 g/L agar-agar).
# (§7) Both microdilution trays and agar plates were incubated at 37° C. for 20 h and subsequently analyzed visually.
# [2] = tested on: S. typhimurium TA100; conditions: Salmonella enterica, 20 h
# Procedure: as §1, §2, §3, §4, §5, §6, §7
# [3] = tested on: M. phlei DSM750; conditions: Mycolicibacterium phlei
# Procedure: as §1, §2, §3, §4, §5, §6, §7
# [4] = tested on: M. luteus DSM1790; conditions: Micrococcus luteus
# Procedure: as §1, §2, §3, §4, §5, §6, §7
# [5] = tested on: B. subtilis DSM10; conditions: Bacillus subtilis
# Procedure: as §1, §2, §3, §4, §5, §6, §7
# [6] = tested on: E. coli DSM1116; conditions: Escherichia coli
# Procedure: as §1, §2, §3, §4, §5, §6, §7
# [7] = E. coli BW25113, 37° C., 20 h, MHBII media, read-out: MIC
# [8] = S. typhimurium TA100, 37° C., MHBII media, read-out: MIC
# [9] = M. phlei DSM750, 37° C., 20 h, MHBII media, read-out: MIC
# [10] = M. luteus DSM1790, 37° C., 20 h, MHBII media, read-out: MIC
# [11] = B. subtilis DSM10, 37° C., 20 h, MHBII media, read-out: MIC
# [12] = E. coli DSM1116, 37° C., 20 h, MHBII media, read-out: MIC
SMILES,"MIC [1, 7] [µg/mL]","MIC [2, 8] [µg/mL]","MIC [3, 9] [µg/mL]","MIC [4, 10] [µg/mL]","MIC [5, 11] [µg/mL]","MIC [6, 12] [µg/mL]","MIC ([1]; BW25113, 20 h) [µg/mL]","MIC ([6]; DSM1116, 20 h) [µg/mL]",MIC ([2]; TYPHIMURIUM) [µg/mL],"MIC ([3]; DSM750, 20 h) [µg/mL]","MIC ([4]; DSM1790, 20 h) [µg/mL]","MIC ([5]; DSM10, 20 h) [µg/mL]"
COc1nc(C(=O)O)ccc1NC(=O)c1ccc(NC(=O)c2ccc(NC(=O)C(Cc3cnn[nH]3)NC(=O)c3ccc(NC(=O)/C(C)=C/c4ccc(O)cc4)cc3)cc2)c(OC)c1O (stereo not drawn) [Compound 7],500,250,8000,> 8000,2000,250,–,–,–,–,–,–
COc1c(NC(=O)c2ccc(NC(=O)[C@H](Cc3c[nH]nn3)NC(=O)c3ccc(NC(=O)/C(C)=C/c4ccc(O)cc4)cc3)cc2)ccc(C(=O)Nc2ccc(C(=O)O)cn2)c1O [Compound 21],–,16,4000,4000,4000,–,125,125,–,–,–,–
COc1c(NC(=O)c2ccc(NC(=O)c3ccc(NC(=O)C(Cc4cnn[nH]4)NC(=O)c4ccc(NC(=O)/C(C)=C/c5ccc(O)cc5)cn4)cn3)c(OC)c2O)ccc(C(=O)O)c1O (stereo not drawn) [Compound 14],63,≤ 16,4000,125,125,≤ 16,–,–,–,–,–,–
COc1c(NC(=O)c2ccc(NC(=O)c3ccc(NC(=O)C(Cc4cnn[nH]4)NC(=O)c4ccc(NC(=O)/C(C)=C/c5ccc(F)cc5)cn4)cc3O)c(OC)c2O)ccc(C(=O)O)c1O (stereo not drawn) [Compound 5],63,16,2000,2000,250,16,–,–,–,–,–,–
COc1c(NC(=O)c2ccc(NC(=O)c3ccc(NC(=O)C(Cc4cnn[nH]4)NC(=O)c4ccc(NC(=O)c5ccc(C#N)cc5)cc4)cn3)c(OC)c2O)ccc(C(=O)O)c1O (stereo not drawn) [Compound 12],31,≤ 16,8000,125,250,31,–,–,–,–,–,–
COc1c(NC(=O)c2ccc(NC(=O)c3ccc(NC(=O)C(Cc4cnn[nH]4)NC(=O)c4ccc(NC(=O)/C(C)=C/c5ccc(O)cc5)cc4)cn3)c(OC)c2O)ccc(C(=O)O)c1O (stereo not drawn) [Compound 10],≤ 16,≤ 16,250,31,63,≤ 16,–,–,–,–,–,–
COc1c(NC(=O)c2ccc(NC(=O)c3ccc(NC(=O)C(Cc4cnn[nH]4)NC(=O)c4ccc(NC(=O)c5ccc(C#N)cc5)cn4)cn3)c(OC)c2O)ccc(C(=O)O)c1O (stereo not drawn) [Compound 13],31,4000,1000,63,125,31,–,–,–,–,–,–
CC(C)Oc1c(NC(=O)c2ccc(NC(=O)[C@H](Cc3c[nH]nn3)NC(=O)c3ccc(NC(=O)c4ccc(C#N)cc4)cc3)cn2)ccc(C(=O)Nc2ccc(C(=O)O)cc2)c1O [Compound 17],31,≤ 16,500,125,31,31,–,–,–,–,–,–
COc1c(NC(=O)c2ccc(NC(=O)c3ccc(NC(=O)C(Cc4cnn[nH]4)NC(=O)c4ccc(NC(=O)c5ccc(F)cc5)cn4)cc3O)c(OC)c2O)ccc(C(=O)O)c1O (stereo not drawn) [Compound 9],125,310,1000,> 8000,1000,63,–,–,–,–,–,–
COc1c(NC(=O)c2ccc(NC(=O)c3ccc(NC(=O)C(Cc4cnn[nH]4)NC(=O)c4ccc(NC(=O)/C(C)=C/c5ccc(O)cc5)nn4)cc3)c(OC)c2O)ccc(C(=O)O)c1O (stereo not drawn) [Compound 3],31,31,2000,4000,1000,31,–,–,–,–,–,–
COc1c(NC(=O)c2ccc(NC(=O)c3ccc(NC(=O)[C@H](CC#N)NC(=O)c4ccc(NC(=O)/C(C)=C/c5ccc(O)cc5)cc4)cc3)c(OC)c2O)ccc(C(=O)O)c1O [Albicidin],–,–,–,–,–,–,63,63,63,2000,1000,250
